Source: ChEMBL document CHEMBL1201862, “PubChem BioAssay data set” (2004)
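How tested: cells in 96-well plates exposed to compound for 48 hours at five concentrations. GI50 is the concentration that inhibits growth by half.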 Activity calls are given as the source filed them. No stated cut-off is given here; in the data, active = GI50 up to about 1.1 µM and inactive = higher.

Assays:
Assay in all cases: NCI anticancer screen, dose series, 48 h
OVCAR-8 = system: OVCAR-8
U-251 = system: U-251
MOLT-4 = system: MOLT-4
RXF 393 = system: RXF 393
ACHN = system: ACHN
HCC 2998 = system: HCC 2998
NCI-H522 = system: NCI-H522
SF-539 = system: SF-539
UACC-257 = system: UACC-257
OVCAR-3 = system: OVCAR-3
HCT-15 = system: HCT-15
UO-31 = system: UO-31
T47D = system: T47D
NCI/ADR-RES = system: NCI/ADR-RES
HOP-62 = system: HOP-62
DU-145 = system: DU-145
TK-10 = system: TK-10
M14 = system: M14
MCF7 = system: MCF7
786-0 = system: 786-0

SMILES	GI50 (OVCAR-8)	GI50 (U-251)	GI50 (MOLT-4)	GI50 (RXF 393)	GI50 (ACHN)	GI50 (HCC 2998)	GI50 (NCI-H522)	GI50 (SF-539)	GI50 (UACC-257)	GI50 (OVCAR-3)	GI50 (HCT-15) [µM]	GI50 (UO-31)	GI50 (T47D)	GI50 (NCI/ADR-RES)	GI50 (HOP-62)	GI50 (DU-145)	GI50 (TK-10)	GI50 (M14)	GI50 (MCF7)	GI50 (786-0)
Cc1ccc(SC2=C(N(C)C)C(=O)c3ccccc3C2=O)cc1	1.91 µM (inactive)	8.05 µM (inactive)	0.82 µM (active)	6.15 µM (inactive)	6.87 µM (inactive)	14 µM (inactive)	1.22 µM (inactive)	2.79 µM (inactive)	1.91 µM (inactive)	0.661 µM (active)	2.45	10.1 µM (inactive)	3.35 µM (inactive)	0.847 µM (active)	8.2 µM (inactive)	10.7 µM (inactive)	7.43 µM (inactive)	3.27 µM (inactive)	2.31 µM (inactive)	3.82 µM (inactive)
c1ccc(C[N+]23CN4CN(CN(C4)C2)C3)cc1	30.1 µM (inactive)	18.4 µM (inactive)	22.7 µM (inactive)	18 µM (inactive)	29.3 µM (inactive)	20.4 µM (inactive)	> 100 µM (inactive)	28.6 µM (inactive)	37.4 µM (inactive)	> 100 µM (inactive)	31.4	20.8 µM (inactive)	28.4 µM (inactive)	78.5 µM (inactive)	69.2 µM (inactive)	27.5 µM (inactive)	84.5 µM (inactive)	19.7 µM (inactive)	30.1 µM (inactive)	21.1 µM (inactive)
CN(C)/C=N/c1cc(=O)n(C)c(=O)n1C	> 100 µM (inactive)	> 100 µM (inactive)	> 100 µM (inactive)	> 100 µM (inactive)	> 100 µM (inactive)	> 100 µM (inactive)	> 100 µM (inactive)	> 100 µM (inactive)	> 100 µM (inactive)	> 100 µM (inactive)	> 100	> 100 µM (inactive)	> 100 µM (inactive)	> 100 µM (inactive)	> 100 µM (inactive)	> 100 µM (inactive)	> 100 µM (inactive)	> 100 µM (inactive)	> 100 µM (inactive)	> 100 µM (inactive)
C=CC(C)(O)/C=C/C=C(\C)C(CC1OC1(C)C)OC(=O)/C(C)=C\C (stereo not given)	> 100 µM (inactive)	> 100 µM (inactive)	> 100 µM (inactive)	> 100 µM (inactive)	> 100 µM (inactive)	> 100 µM (inactive)	> 100 µM (inactive)	> 100 µM (inactive)	> 100 µM (inactive)	> 100 µM (inactive)	> 100	> 100 µM (inactive)	> 100 µM (inactive)	> 100 µM (inactive)	> 100 µM (inactive)	> 100 µM (inactive)	> 100 µM (inactive)	> 100 µM (inactive)	> 100 µM (inactive)	> 100 µM (inactive)
O=C(N/N=C1\CCc2ccccc21)N/N=C1\CCc2ccccc21	> 100 µM (inactive)	> 100 µM (inactive)	> 100 µM (inactive)	> 100 µM (inactive)	> 100 µM (inactive)	> 100 µM (inactive)	> 100 µM (inactive)	> 100 µM (inactive)	> 100 µM (inactive)	> 100 µM (inactive)	> 100	> 100 µM (inactive)	> 100 µM (inactive)	> 100 µM (inactive)	> 100 µM (inactive)	> 100 µM (inactive)	> 100 µM (inactive)	13.5 µM (inactive)	> 100 µM (inactive)	> 100 µM (inactive)
